Assay results: US20070123546A1, “2-amino-7,8-dihydro-6H-pyrido[4,3-d]pyrimidin-5-ones” (Chiron Corporation, priority 2005, published 2007)

Target: His-tagged N-terminal ATP binding domain (amino acid residues 9-236) of HSP90α (Homo sapiens, UniProt P07900)
Assay: HSP90 inhibitor binding potency: TRF competition binding assay
Settings: Table 3; competition with biotinylated radicicol
In short: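 Competition against biotinylated radicicol for binding to the His-tagged 9-236 ATP domain of HSP90α: 2 h, room temperature, HEPES/MgCl2/KCl/BSA buffer. Streptavidin capture, then europium-labeled anti-His antibody and enhancement solution; europium counts give IC50.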

SMILES | IC50 [µM]
COc1cncc(-c2cc(F)ccc2[C@H]2Cc3nc(N)nc(C)c3C(=O)N2CC2CCOCC2)n1 [Compound 131, (R)-2-Amino-7-[4-fluoro-2-(6-methoxy-pyrazin-2-yl)-phenyl]-4-methyl-6-(tetrahydro-pyran-4-ylmethyl)-7,8-dihydro-6H-pyrido[4,3-d]pyrimidin-5-one] | < 10
COc1cccc(-c2cc(F)ccc2[C@H]2Cc3nc(N)nc(C)c3C(=O)N2CC2CCOCC2)n1 [Compound 132, (R)-2-Amino-7-[4-fluoro-2-(6-methoxy-pyridin-2-yl)-phenyl]-4-methyl-6-(tetrahydro-pyran-4-ylmethyl)-7,8-dihydro-6H-pyrido[4,3-d]pyrimidin-5-one] | < 10
COc1cncc(-c2cc(F)ccc2[C@H]2Cc3nc(N)nc(C)c3C(=O)N2CC(C)(C)N2CCOCC2)n1 [Compound 133, (R)-2-Amino-7-[4-fluoro-2-(6-methoxy-pyrazin-2-yl)-phenyl]-4-methyl-6-(2-methyl-2-morpholin-4-yl-propyl)-7,8-dihydro-6H-pyrido[4,3-d]pyrimidin-5-one] | < 10
COc1cccc(-c2cc(F)ccc2[C@H]2Cc3nc(N)nc(C)c3C(=O)N2Cc2ccccc2)n1 [Compound 134, (R)-2-Amino-6-benzyl-7-[4-fluoro-2-(6-methoxy-pyridin-2-yl)-phenyl]-4-methyl-7,8-dihydro-6H-pyrido[4,3-d]pyrimidin-5-one] | < 10
COc1ncccc1-c1cc(F)ccc1[C@H]1Cc2nc(N)nc(C)c2C(=O)N1Cc1ccccc1 [Compound 135, (R)-2-Amino-6-benzyl-7-[4-fluoro-2-(2-methoxy-pyridin-3-yl)-phenyl]-4-methyl-7,8-dihydro-6H-pyrido[4,3-d]pyrimidin-5-one] | < 10
COc1cncc(-c2cc(F)ccc2[C@H]2Cc3nc(N)nc(C)c3C(=O)N2Cc2ccccc2)n1 [Compound 136, (R)-2-Amino-6-benzyl-7-[4-fluoro-2-(6-methoxy-pyrazin-2-yl)-phenyl]-4-methyl-7,8-dihydro-6H-pyrido[4,3-d]pyrimidin-5-one] | < 10
Cc1nc(N)nc2c1C(=O)N(Cc1ccccc1)[C@@H](c1ccc(F)cc1-c1cccc(F)c1F)C2 [Compound 138, (R)-2-Amino-6-benzyl-4-methyl-7-(5,2′,3′-trifluoro-biphenyl-2-yl)-7,8-dihydro-6H-pyrido[4,3-d]pyrimidin-5-one] | < 10
COc1ccc(-c2cc(F)ccc2[C@H]2Cc3nc(N)nc(C)c3C(=O)N2Cc2ccccc2)cc1F [Compound 139, (R)-2-Amino-6-benzyl-7-(5,3′-difluoro-4′-methoxy-biphenyl-2-yl)-4-methyl-7,8-dihydro-6H-pyrido[4,3-d]pyrimidin-5-one] | > 10
Cc1nc(N)nc2c1C(=O)N(Cc1ccccc1)[C@@H](c1ccc(F)cc1-c1cccnc1)C2 [Compound 140, (R)-2-Amino-6-benzyl-7-(4-fluoro-2-pyridin-3-yl-phenyl)-4-methyl-7,8-dihydro-6H-pyrido[4,3-d]pyrimidin-5-one] | < 10
COc1ncc(-c2cc(F)ccc2[C@H]2Cc3nc(N)nc(C)c3C(=O)N2Cc2ccccc2)c(OC)n1 [Compound 141, (R)-2-Amino-6-benzyl-7-[2-(2,4-dimethoxy-pyrimidin-5-yl)-4-fluoro-phenyl]-4-methyl-7,8-dihydro-6H-pyrido[4,3-d]pyrimidin-5-one] | > 10
Cc1ccc(-c2cc(F)ccc2[C@H]2Cc3nc(N)nc(C)c3C(=O)N2Cc2ccccc2)c(F)c1 [Compound 142, (R)-2-Amino-6-benzyl-7-(5,2′-difluoro-4′-methyl-biphenyl-2-yl)-4-methyl-7,8-dihydro-6H-pyrido[4,3-d]pyrimidin-5-one] | > 10
Cc1nc(N)nc2c1C(=O)N(Cc1ccccc1)[C@@H](c1ccc(F)cc1-c1cccnc1F)C2 [Compound 143, (R)-2-Amino-6-benzyl-7-[4-fluoro-2-(2-fluoro-pyridin-3-yl)-phenyl]-4-methyl-7,8-dihydro-6H-pyrido[4,3-d]pyrimidin-5-one] | < 10
COc1cccc(-c2cc(F)ccc2[C@H]2Cc3nc(N)nc(C)c3C(=O)N2Cc2ccccc2)c1F [Compound 144, (R)-2-Amino-6-benzyl-7-(5,2′-difluoro-3′-methoxy-biphenyl-2-yl)-4-methyl-7,8-dihydro-6H-pyrido[4,3-d]pyriniidin-5-one] | > 10
COc1ncc(-c2cc(F)ccc2[C@H]2Cc3nc(N)nc(C)c3C(=O)N2)nc1OC [Compound 145, 2-Amino-7-[2-(5,6-dimethoxy-pyrazin-2-yl)-4-fluoro-phenyl]-4-methyl-7,8-dihydro-6H-pyrido[4,3-d]pyrimidin-5-one] | < 10
COc1cncc(-c2cc(F)ccc2[C@H]2Cc3nc(N)nc(C)c3C(=O)N2CCC(C)C)n1 [Compound 146, (R)-2-Amino-7-[4-fluoro-2-(6-methoxy-pyrazin-2-yl)-phenyl]-4-methyl-6-(3-methyl-butyl)-7,8-dihydro-6H-pyrido[4,3-d]pyrimidin-5-one] | < 10
COc1ncc(-c2cc(F)ccc2[C@H]2Cc3nc(N)nc(C)c3C(=O)N2CCC(C)C)nc1OC [Compound 147, (R)-2-Amino-7-[-(5,6-dimethoxy-pyrazin-2-yl)-4-fluoro-phenyl]-4-methyl-6-(3-methyl-butyl)-7,8-dihydro-6H-pyrido[4,3-d]pyrimidin-5-one] | < 10
Cc1nc(N)nc2c1C(=O)N(CCC(C)C)[C@@H](c1ccc(F)cc1Br)C2 [Compound 148, (R)-2-Amino-7-(2-bromo-4-fluoro-phenyl)-4-methyl-6-(3-methyl-butyl)-7,8-dihydro-6H-pyrido[4,3-d]pyrimidin-5-one] | > 10
Cc1nc(N)nc2c1C(=O)N(CC(C)C)[C@@H](c1ccc(F)cc1Br)C2 [Compound 149, (R)-2-Amino-7-(2-bromo-4-fluoro-phenyl)-6-isobutyl-4-methyl-7,8-dihydro-6H-pyrido[4,3-d]pyrimidin-5-one] | > 10
COc1cccc(-c2cc(F)ccc2[C@H]2Cc3nc(N)nc(C)c3C(=O)N2CCC(C)C)n1 [Compound 150, (R)-2-Amino-7-[4-fluoro-2-(6-methoxy-pyridin-2-yl)-phenyl]-4-methyl-6-(3-methyl-butyl)-7,8-dihydro-6H-pyrido[4,3-d]pyrimidin-5-one] | < 10
Cc1nc(N)nc2c1C(=O)N(CCC(C)C)[C@@H](c1ccc(F)cc1-c1cccnc1F)C2 [Compound 151, (R)-2-Amino-7-[4-fluoro-2-(2-fluoro-pyridin-3-yl)-phenyl]-4-methyl-6-(3-methyl-butyl)-7,8-dihydro-6H-pyrido[4,3-d]pyrimidin-5-one] | < 10
COc1ncccc1-c1cc(F)ccc1[C@H]1Cc2nc(N)nc(C)c2C(=O)N1CCC(C)C [Compound 152, (R)-2-Amino-7-[4-fluoro-2-(2-methoxy-pyridin-3-yl)-phenyl]-4-methyl-6-(3-methyl-butyl)-7,8-dihydro-6H-pyrido[4,3-d]pyrimidin-5-one] | < 10
COc1ccncc1-c1cc(F)ccc1[C@H]1Cc2nc(N)nc(C)c2C(=O)N1CCC(C)C [Compound 153, (R)-2-Amino-7-[4-fluoro-2-(4-methoxy-pyridin-3-yl)-phenyl]-4-methyl-6-(3-methyl-butyl)-7,8-dihydro-6H-pyrido[4,3-d]pyrimidin-5-one] | < 10
COc1cncc(-c2cc(F)ccc2[C@H]2Cc3nc(N)nc(C)c3C(=O)N2CC(C)C)n1 [Compound 154, (R)-2-Amino-7-[4-fluoro-2-(6-methoxy-pyrazin-2-yl)-phenyl]-6-isobutyl-4-methyl-7,8-dihydro-6H-pyrido[4,3-d]pyrimidin-5-one] | < 10
COc1cccc(-c2cc(F)ccc2[C@H]2Cc3nc(N)nc(C)c3C(=O)N2CC(C)C)n1 [Compound 155, (R)-2-Amino-7-[4-fluoro-2-(6-methoxy-pyridin-2-yl)-phenyl]-6-isobutyl-4-methyl-7,8-dihydro-6H-pyrido[4,3-d]pyrimidin-5-one] | < 10
COc1ncc(-c2cc(F)ccc2[C@H]2Cc3nc(N)nc(C)c3C(=O)N2CC(C)C)nc1OC [Compound 156, (R)-2-Amino-7-[2-(5,6-dimethoxy-pyrazin-2-yl)-4-fluoro-phenyl]-6-isobutyl-4-methyl-7,8-dihydro-6H-pyrido[4,3-d]pyrimidin-5-one] | < 10
Cc1nc(N)nc2c1C(=O)N(CC(C)C)[C@@H](c1ccc(F)cc1-c1cccnc1F)C2 [Compound 157, (R)-2-Amino-7-[4-fluoro-2-(2-fluoro-pyridin-3-yl)-phenyl]-6-isobutyl-4-methyl-7,8-dihydro-6H-pyrido[4,3-d]pyrimidin-5-one] | < 10
COc1ncccc1-c1cc(F)ccc1[C@H]1Cc2nc(N)nc(C)c2C(=O)N1CC(C)C [Compound 158, (R)-2-Amino-7-[4-fluoro-2-(2-methoxy-pyridin-3-yl)-phenyl]-isobutyl-4-methyl-7,8-dihydro-6H-pyrido[4,3-d]pyrimidin-5-one] | < 10
COc1ccncc1-c1cc(F)ccc1[C@H]1Cc2nc(N)nc(C)c2C(=O)N1CC(C)C [Compound 159, (R)-2-Amino-7-[4-fluoro-2-(4-methoxy-pyridin-3-yl)-phenyl]-6-isobutyl-4-methyl-7,8-dihydro-6H-pyrido[4,3-d]pyrimidin-5-one] | > 10
COc1cccc(-c2cc(F)ccc2[C@H]2Cc3nc(N)nc(C)c3C(=O)N2Cc2ccc(F)cc2)n1 [Compound 160, (R)-2-Amino-6-(4-fluoro-benzyl)-7-[4-fluoro-2-(6-methoxy-pyridin-2-yl)-phenyl]-4-methyl-7,8-dihydro-6H-pyrido[4,3-d]pyrimidin-5-one] | < 10
COc1cncc(-c2cc(F)ccc2[C@H]2Cc3nc(N)nc(C)c3C(=O)N2Cc2ccc(F)cc2)n1 [Compound 161, (R)-2-Amino-6-(4-fluoro-benzyl)-7-[4-fluoro-2-(6-methoxy-pyrazin-2-yl)-phenyl]-4-methyl-7,8-dihydro-6H-pyrido[4,3-d]pyrimidin-5-one] | < 10
